US5753661A, “Fused benzo compounds containing a nitrogen heterocycle for the treatment of central nervous system disorders” (priority 1992, dated 1998)

Key:
5-HT1A receptor [1] = molecular target: T1, 5-HT1A receptor (Rattus norvegicus, UniProt P19327); assay: Generalization to the discriminative stimulus properties induced by 8-OH-DPAT in rats (8-OH-DPAT cue, agonism); type: in vivo, rat (male Wistar); design: from tissue; host or cells: living male Wistar rat (in vivo, endogenous receptor); conditions: for ED50: rat, sc, usually 30 or 45 min before test
T1 sequence (P19327 1-422): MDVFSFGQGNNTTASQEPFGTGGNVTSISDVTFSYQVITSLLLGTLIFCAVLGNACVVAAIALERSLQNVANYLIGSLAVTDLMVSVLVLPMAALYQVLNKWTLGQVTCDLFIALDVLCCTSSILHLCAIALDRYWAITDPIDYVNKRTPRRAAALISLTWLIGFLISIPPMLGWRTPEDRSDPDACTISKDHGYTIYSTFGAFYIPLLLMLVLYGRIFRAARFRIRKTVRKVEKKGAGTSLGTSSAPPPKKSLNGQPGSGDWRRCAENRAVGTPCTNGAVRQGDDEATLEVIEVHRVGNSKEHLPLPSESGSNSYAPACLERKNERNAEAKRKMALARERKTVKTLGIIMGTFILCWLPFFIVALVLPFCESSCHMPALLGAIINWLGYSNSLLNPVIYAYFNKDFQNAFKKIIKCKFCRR
Excerpt: Generalization to the Discriminative Stimulus Properties Induced by 8-OH-DPAT in Rats
This test is used to determine the 5-HT1A receptor agonistic effect of a test compound in vivo. A related method is described by Tricklebank, M. D., supra; Amt, J. Pharmacology & Toxicology, 1989, 64, 165.
The per cent drug responce obtained for each dose of test compound is used to calculate ED50 values by log-probit analysis.

5-HT1A receptor [2] = molecular target: T1, 5-HT1A receptor; assay: Inhibition of 3H-8-OH-DPAT binding to serotonin 5-HT1A receptors in rat brain in vitro; design: 5-HT1A receptors in membranes from rat brain minus cerebellum; from tissue; host or cells: rat brain minus cerebellum, membranes; conditions: 3H-8-OH-DPAT 1 nM; membranes from rat brain minus cerebellum; read-out: IC50, 3H 8-OH-DPAT binding
Description: Inhibition of ^3 H-8-OH-DPAT Binding to Serotonin 5-HT1A Receptors in Rat Brain in vitro.
By this method the inhibition by drugs of the binding of the 5-HT1A agonist 3H-8-OH-DPAT (1 nM) to 5-HT1A receptors in membranes from rat brain minus cerebellum is determined in vitro . Accordingly, this is a test for affinity for the 5-HT1A receptor. The assay was performed as described by Hyttel et al., Drug Dev. Res. 1988, 15, 389-404.

5-HT1A receptor [3] = molecular target: T1, 5-HT1A receptor; assay: Inhibition of 5-MeO-DMT-induced 5-HT syndrome in rats; type: in vivo, rat (male Wistar); design: Male Wistar rats (Mol:Wist) weighing 170-240 g are used; from tissue; host or cells: living male Wistar rat (Mol:Wist) (in vivo, endogenous receptor); conditions: sc, 5-MeO-DMT 5 mg/kg s.c., inhibition of piano playing
Excerpt: Inhibition of 5-MeO-DMT-Induced 5-HT Syndrome in Rats
The so-called 5-HT syndrome is a characteristic pattern of behaviours which are induced by 5-HT agonists with effects on 5-HT, possibly 5-HT1A receptors (Smith, L. M. and Peroutka, S. J., Pharmacol. Biochem. & Behaviour, 1986, 24, 1513; Tricklebank, M. et al, Eur. J. Pharmacol. 1985, 117, 15). This test is a test for determining the antagonist effects of a test compound on 5-HT1A receptors in vivo by measuring the ability to inhibit 5-MeO-DMT induced 5-HT syndrome.
Male Wistar rats (Mol:Wist) weighing 170-240 g are used. Test substance is injected s.c. before 5-MeO-DMT 5 mg/kg, s.c. Four rats are used for each dose. A control group pretreated with saline is included each test day. 10, 15 and 20 min later the rats are observed for presence of serotonin (5-HT) syndrome. The following symptoms are recorded: 1) forepaw treading ("piano playing"), 2) head weaving and 3) hindleg abduction. Furthermore, flat motility is scored. Each part of the syndrome is scored as follows: marked effect (score 2), weak syndrome (score 1) and no effect (score 0). The scores of the three observation periods are added. Thus the maximum obtainable score for four rats is 24. The effect of the test substance is expressed as percent inhibition relative to the control group.
The percent inhibition of the piano playing syndrome is used as the response and ED50 value are calculated by log-probit analysis.

5-HT1A receptor [4] = molecular target: T1, 5-HT1A receptor; assay: Antagonism of the discriminative stimulus properties induced by 8-OH-DPAT in rats (8-OH-DPAT cue); type: in vivo, rat (male Wistar); design: from tissue; host or cells: living male Wistar rat (in vivo, endogenous receptor); conditions: sc, before 8-OH-DPAT 0.4 mg/kg i.p.
Description: Antagonism of the Discriminative Stimulus Properties Induced by 8-OH-DPAT in Rats.
This test is used to determine the 5-HT1A receptor antagonistic effect of a test compound in vivo. A related method is described by Tricklebank, M. D., et al, Eur. J. Pharmacol, 1987, 133, 47-56; Amt, J. Pharmacology & Toxicology, 1989, 64, 165.
Male Wistar rats are trained to discriminate between 8-OH-DPAT (0.4 mg/kg, i.p., 15 min pretreatment) and physiological saline in operant chambers equipped with two response levers. Between the levers a dipper is placed, where water rewards (0.1 ml) are presented. The rats are water deprived for at least 24 h and work in a fixed ratio (FR) schedule (final FR=32).
Following 8-OH-DPAT administration, responding is reinforced only on a designated (drug) lever, whereas responding on the opposite lever has no consequences. Following saline administration, responding is reinforced on the lever opposite to the drug lever. Drug and saline trials alternate randomly between days. The level of discrimination accuracy is expressed as the per cent drug responses and is calculated as the number of correct responses ×100 divided by the sum of the correct and incorrect responses before the first reward. The time to the first reward is also recorded as a measure of reaction time. When stable accuracy (mean correct responding=90%; individual rats at least 75% correct responding) is obtained test sessions are included between training days. Test compound is injected s.c. or p.o. at appropriate time before 8-OH-DPAT and the test begins 15 min after 8-OH-DPAT injection. The test trial is terminated when a total of 32 responses are made on either lever or when 20 min have elapsed. No reward is given and the rats have free access to water for 20-30 min after the test. The effects are expressed as per cent inhibition of drug responding. Only results from rats making at least 10 responses on one lever are included in data analysis. Furthermore, only test sessions in which at least half of the rats respond are included.
The per cent inhibition of drug response obtained for each dose of test compound is used to calculate ED50 values by log-probit analysis.

SMILES	ED50 (5-HT1A receptor [1])	IC50 (5-HT1A receptor [2])	ED50 (5-HT1A receptor [3])	ED50 (5-HT1A receptor [4])	agonist activity/efficacy in words, 8-OH-DPAT cue (5-HT1A receptor [1]; 8-OH-DPAT cue model, s.c.)	response, 8-OH-DPAT cue agonism (5-HT1A receptor [1]; at 0.08-19 μmol/kg, s.c. (note b))
CC1(C)Cc2cccc(N3CCN(CCCCN4CCN(C5CCCCC5)C4=O)CC3)c2O1 [Compound 2bb, 1-Cyclohexyl-3-[4-[4-(2,3-dihydro-2,2-dimethylbenzofuran-7-yl)-1-piperazinyl]-1-butyl]-2-imidazolidinone]	0.036 µmol/kg	0.92 nM	0.78 µmol/kg			
O=C1N(CCN2CCN(c3cccc4ccoc34)CC2)CCN1c1ccccc1 [Compound 2m, 1-[2-[4-Benzofuran-7-yl-1-piperazinyl]ethyl]-3-phenyl-2-imidazolidinone]	2.3 µmol/kg	12 nM				
[O-][S+](CCCN1CCN(c2cccc3c2OCCO3)CC1)C1CCCCC1 (stereo not shown) [Compound 3a, 1-(1,4-Benzodioxan-5-yl)-4-(3-cyclohexylthio-1-propyl)piperazine S-oxide]	0.02 µmol/kg	1.8 nM	5.2 µmol/kg			
O=C1N(CCN2CCN(c3cccc4c3OCCO4)CC2)CCN1C1CCCCC1 [Compound 2d, 1-[2-[4-(1,4-Benzodioxan-5-yl)-1-piperazinyl]ethyl]-3-cyclohexyl-2-imidazolidinone]			10 µmol/kg	6.3 µmol/kg	partial agonist	30-50%
O=S(=O)(CCCN1CCN(c2cccc3c2OCCO3)CC1)C12CC3CC(CC(C3)C1)C2 [Compound 1f, 1-[3-(1-Adamantyl)sulfonyl-1-propyl]-4-(1,4-benzodioxan-5-yl)piperazine]	0.052 µmol/kg	1.1 nM	0.47 µmol/kg			
O=C1N(CCN2CCN(c3cccc4[nH]ccc34)CC2)CCN1C1CCCC1 [Compound 2y, 1-Cyclopentyl-3-[2-[4-(4-indolyl)-1-piperazinyl]ethyl]-2-imidazolidinone]		28 nM	2.7 µmol/kg	1.9 µmol/kg		
CC1(C)Cc2cccc(N3CCN(CCN4CCN(c5ccccc5)C4=O)CC3)c2O1 [Compound 2n, 1-[2-[4-(2,3-Dihydro-2,2-dimethylbenzofuran-7-yl)-1-piperazinyl]ethyl]-3-phenyl-2-imidazolidinone]	0.13 µmol/kg	3.2 nM				
O=S(=O)(CCCN1CCN(c2cccc3c2OCCO3)CC1)c1ccccc1 [Compound 1b, 1-(1,4-Benzodioxan-5-yl)-4-(3-phenylsulfonyl-1-propyl)piperazine]	0.099 µmol/kg	7.8 nM	9.5 µmol/kg			
O=C1N(CCN2CCN(c3cccc4c3OCC4)CC2)CCN1C1CCCC1 [Compound 2f, 1-Cyclopentyl-3-[2-[4-(2,3-dihydrobenzofuran-7-yl)-1-piperazinyl]ethyl]-2-imidazolidinone]	40 µmol/kg	54 nM	28 µmol/kg			
CC1(C)Cc2cccc(N3CCN(CCN4CCN(C5CCCC5)C4=O)CC3)c2O1 [Compound 2p, 1-Cyclopentyl-3-[2-[4-(2,3-dihydro-2,2-dimethylbenzofuran-7-yl)-1-piperazinyl]ethyl]-2-imidazolidinone]	1.1 µmol/kg	3.7 nM	4.2 µmol/kg			
O=C1N(CCN2CCN(c3cccc4occc34)CC2)CCN1c1ccccc1 [Compound 2r, 1-[2-(4-Benzofuran-4-yl-1-piperazinyl)ethyl]-3-phenyl-2-imidazolidinone]		23 nM				
NC(=O)c1cc2c(N3CCN(CCN4CCN(C5CCCC5)C4=O)CC3)cccc2o1 [Compound 8a, 4-[4-[2-(3-Cyclopentyl-2-imidazolidinon-1-yl)ethyl]-1-piperazinyl]-2-benzofuranylcarboxamide]		3.9 nM				
O=C1N(CCCN2CCN(c3cccc4c3OCCO4)CC2)CCN1C1CCCCC1 [Compound 4c, 1-[3-[4-(1,4-Benzodioxan-5-yl)-1-piperazinyl]-1-propyl]-3-cyclohexyl-2-imidazolidinone]		19 nM				
CC1(C)Cc2c(cccc2N2CCN(CCCN3CCN(C4CCCCC4)C3=O)CC2)O1 [Compound 14d]		22 nM				
O=c1n(CCN2CCN(c3cccc4c3OCCO4)CC2)ccn1-c1ccc(F)cc1 [Compound 5a, 1-[3-[4-(1,4-Benzodioxan-5-yl)-1-piperazinyl]-1-ethyl]-1,3-dihydro-3-(4-fluorophenyl)-2-imidazolone]	1.8 µmol/kg	11 nM	12 µmol/kg			
O=C1N(CCN2CCN(c3cccc4occc34)CC2)CCN1C1CCCC1 [Compound 2s, 1-[2-(4-Benzofuran-4-yl-1-piperazinyl)ethyl]-3-cyclopentyl-2-imidazolidinone]		32 nM				
O=c1n(CCN2CCN(c3cccc4c3OCCO4)CC2)c2ccccc2n1-c1ccc(F)cc1 [Compound 12a, 1-[2-[4-(1,4-Benzodioxan-5-yl)-1-piperazinyl]ethyl]-3-(4-fluorophenyl)-2(3H)-benzimidazolone]		36 nM				
O=S(=O)(CCCN1CCN(c2cccc3c2OCC3)CC1)C1CCCCC1 [Compound 1c, 1-(3-Cyclohexylsulfonyl-1-propyl)-4-(2,3-dihydrobenzofuran-7-yl)piperazine]	0.069 µmol/kg	2.6 nM	12 µmol/kg			
O=C1N(CCN2CCN(c3cccc4ccccc34)CC2)CCN1c1ccccc1 [Compound 2k, 1-[2-[4-(1-Naphtyl)-1-piperazinyl]ethyl]-3-phenyl-2-imidazolidinone]		15 nM				
O=C1N(CCN2CCN(c3cccc4cc[nH]c34)CC2)CCN1c1ccccc1 [Compound 2v, 1-[2-[4-(7-Indolyl)-1-piperazinyl]ethyl]-3-phenyl-2-imidazolidinone]		71 nM				
